From patent publication US20240101521A1, “DIAMINOTRIAZINE COMPOUNDS” (BASF SE, priority 2021, published 2024)

Experiments:
Assay in all cases: greenhouse pre-emergence herbicidal test
Format in all cases: in vivo
Abutilon theophrasti = conditions: scale 0 to 100
Summary of the method: (§1)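 Spray application right after sowing of active ingredients suspended or emulsified in water, onto loamy sand with about 3.0% humus; pots covered with plastic hoods until rooted, kept at 10-25° C. or 20-35° C. depending on species. Damage scored 0-100 (100 = no emergence or complete aerial destruction) after 2 to 4 weeks.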

Digitaria sanguinalis = conditions: scale 0 to 100
Summary of the method: as §1

Echinochloa crus-galli = conditions: scale 0 to 100
Summary of the method: as §1

Amaranthus retroflexus = conditions: scale 0 to 100
Summary of the method: as §1

Apera spica-venti = conditions: 31 g/ha, scale 0 to 100
Summary of the method: as §1

Setaria faberi = conditions: scale 0 to 100
Summary of the method: as §1

Lolium multiflorum = conditions: pre-emergence, 62,5 g/ha, scale 0 to 100
Summary of the method: as §1

Alopecurus myosuroides = conditions: pre-emergence, 62,5 g/ha, scale 0 to 100
Summary of the method: as §1

Structure (SMILES) | herbicidal activity (Abutilon theophrasti; pre-emergence, 62,5 g/ha) | herbicidal activity (Echinochloa crus-galli; pre-emergence, 62,5 g/ha) | herbicidal activity (Lolium multiflorum) | herbicidal activity (Amaranthus retroflexus; pre-emergence, 62,5 g/ha) | herbicidal activity (Setaria faberi; pre-emergence, 62,5 g/ha) | other results
COc1c(Cl)ccc(F)c1Nc1nc(N)nc(C(C)(C)F)n1 [Example 2] | 100% | 100% | – | – | – | herbicidal activity (Digitaria sanguinalis; pre-emergence, 62,5 g/ha): 100%
COc1c(Cl)cc(C)c(F)c1Nc1nc(N)nc(C(C)(C)F)n1 [Example 3] | 100% | 100% | – | – | – | herbicidal activity (Digitaria sanguinalis; pre-emergence, 62,5 g/ha): 100%
COc1c(Br)ccc(F)c1Nc1nc(N)nc(C(C)(C)F)n1 [Example 4, N4-(3-bromo-6-fluoro-2-methoxy-phenyl)-6-(1-fluoro-1-methyl-ethyl)-1,3,5-triazine-2,4-diamine] | 100% | 100% | – | – | – | herbicidal activity (Digitaria sanguinalis; pre-emergence, 62,5 g/ha): 100%
COc1c(Br)ccc(F)c1Nc1nc(N)nc(C2(F)CCCCC2)n1 [Example 5] | – | – | – | – | – | herbicidal activity (Abutilon theophrasti; pre-emergence, 250 g/ha): 90%; herbicidal activity (Digitaria sanguinalis; pre-emergence, 250 g/ha): 100%; herbicidal activity (Echinochloa crus-galli; pre-emergence, 250 g/ha): 85%
COc1c(Cl)cc(Cl)c(F)c1Nc1nc(N)nc(C2(F)CCCC2)n1 [Example 60] | – | – | – | – | – | herbicidal activity (Amaranthus retroflexus; pre-emergence, 31 g/ha): 100%; herbicidal activity (Apera spica-venti): 95%; herbicidal activity (Setaria faberi; pre-emergence, 31 g/ha): 98%
CC#CC(C)Oc1c(F)cc(F)c(F)c1Nc1nc(N)nc(C2(F)CCCC2)n1 (stereo not drawn) [Example 104] | 100% | 100% | 100% | – | – | –
CC(C)(F)c1nc(N)nc(Nc2c(F)c(F)cc(Cl)c2OC/C=C/Br)n1 [Example 125] | – | – | 100% | 100% | 100% | –
CC(C)(F)c1nc(N)nc(Nc2c(F)c(F)cc(F)c2OC/C=C/Cl)n1 [Example 126] | – | – | 100% | 100% | 100% | –
CC(C)(F)c1nc(N)nc(Nc2c(F)c(F)cc(F)c2OC/C=C/Br)n1 [Example 127] | – | – | 100% | 100% | 100% | –
C#CCOc1c(Cl)cc(F)c(F)c1Nc1nc(N)nc(C2(F)CCCC2)n1 [Example 129] | – | – | 90% | 95% | 100% | –
COc1c(Cl)c(F)c(F)c(F)c1Nc1nc(N)nc(C(C)(C)F)n1 [Example 148] | – | – | 100% | 100% | – | herbicidal activity (Alopecurus myosuroides): 100%
COc1c(Cl)c(F)c(F)c(F)c1Nc1nc(N)nc(C(C)(C)OC)n1 [Example 174] | – | – | 100% | 100% | – | herbicidal activity (Alopecurus myosuroides): 98%
